Assay results: PubChem BioAssay (NCI)
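Assay format: 96-well plates, 48-hour exposure. GI50 marks 50% less growth. TGI denotes the concentration required for complete inhibition of growth.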

Legend:
Assay in all cases: growth of human tumour cells (NCI), 48 h
DU-145 prostate = tested on: DU-145 prostate
NCI/ADR-RES ovarian = tested on: NCI/ADR-RES ovarian
SNB-75 CNS = tested on: SNB-75 CNS
RPMI-8226 leukemia = tested on: RPMI-8226 leukemia
NCI-H226 lung = tested on: NCI-H226 lung
SF-539 CNS = tested on: SF-539 CNS
BT-549 breast = tested on: BT-549 breast
NCI-H460 lung = tested on: NCI-H460 lung
MCF7 breast = tested on: MCF7 breast
EKVX NSCLC = tested on: EKVX NSCLC
HCC-2998 colon = tested on: HCC-2998 colon
OVCAR-3 ovarian = tested on: OVCAR-3 ovarian
SK-OV-3 ovarian = tested on: SK-OV-3 ovarian
HL-60(TB) leukemia = tested on: HL-60(TB) leukemia
SR leukemia = tested on: SR leukemia
NCI-H522 lung = tested on: NCI-H522 lung
SN12C renal = tested on: SN12C renal
OVCAR-4 ovarian = tested on: OVCAR-4 ovarian
PC-3 prostate = tested on: PC-3 prostate
M14 melanoma = tested on: M14 melanoma
HS 578T breast = tested on: HS 578T breast
TK-10 renal = tested on: TK-10 renal
CAKI-1 renal = tested on: CAKI-1 renal
ACHN renal = tested on: ACHN renal
HOP-62 NSCLC = tested on: HOP-62 NSCLC
NCI-H23 lung = tested on: NCI-H23 lung
U251 CNS = tested on: U251 CNS
RXF 393 renal = tested on: RXF 393 renal
OVCAR-8 ovarian = tested on: OVCAR-8 ovarian
MALME-3M melanoma = tested on: MALME-3M melanoma
KM12 colon = tested on: KM12 colon
SK-MEL-5 melanoma = tested on: SK-MEL-5 melanoma
SF-295 CNS = tested on: SF-295 CNS
SK-MEL-28 melanoma = tested on: SK-MEL-28 melanoma
HCT-116 colon = tested on: HCT-116 colon
CCRF-CEM leukemia = tested on: CCRF-CEM leukemia
IGROV1 ovarian = tested on: IGROV1 ovarian
HOP-92 NSCLC = tested on: HOP-92 NSCLC
MOLT-4 leukemia = tested on: MOLT-4 leukemia
MDA-MB-231 breast = tested on: MDA-MB-231 breast
SF-268 CNS = tested on: SF-268 CNS
T-47D breast = tested on: T-47D breast
A549 NSCLC = tested on: A549 NSCLC
COLO 205 colon = tested on: COLO 205 colon
MDA-MB-435 = tested on: MDA-MB-435
SK-MEL-2 melanoma = tested on: SK-MEL-2 melanoma
HCT-15 colon = tested on: HCT-15 colon
SW-620 colon = tested on: SW-620 colon
OVCAR-5 ovarian = tested on: OVCAR-5 ovarian
LOX IMVI melanoma = tested on: LOX IMVI melanoma
UACC-62 melanoma = tested on: UACC-62 melanoma
SNB-19 CNS = tested on: SNB-19 CNS
UO-31 renal = tested on: UO-31 renal
HT29 colon = tested on: HT29 colon
A498 renal = tested on: A498 renal
786-0 renal = tested on: 786-0 renal
UACC-257 melanoma = tested on: UACC-257 melanoma

Work on `O=C1Nc2cc(Cl)ccc2Oc2cc(Oc3ccccc3)ccc21` yielded a GI50 (DU-145 prostate) of 6.52 µM, a TGI (DU-145 prostate) of 26.6 µM and a GI50 (NCI/ADR-RES ovarian) of 2.53 µM. It also gave a TGI (NCI/ADR-RES ovarian) of 9.77 µM, a GI50 (SNB-75 CNS) of 1.49 µM and a TGI (SNB-75 CNS) of 20.1 µM. It also gave a GI50 (RPMI-8226 leukemia) of 5.35 µM, a TGI (RPMI-8226 leukemia) of over 100 µM and a GI50 (NCI-H226 lung) of 6.41 µM. The TGI (NCI-H226 lung) was 55.8 µM, the GI50 (SF-539 CNS) was 8.53 µM and the TGI (SF-539 CNS) was 40 µM. It also gave a GI50 (BT-549 breast) of 8.97 µM, a TGI (BT-549 breast) of 51.1 µM and a GI50 (NCI-H460 lung) of 2.91 µM. For the same compound, the TGI (NCI-H460 lung) was 11.7 µM, the GI50 (MCF7 breast) was 3.39 µM and the TGI (MCF7 breast) was 18.3 µM. It also gave a GI50 (EKVX NSCLC) of 4.36 µM, a TGI (EKVX NSCLC) of 37.2 µM and a GI50 (HCC-2998 colon) of 8.8 µM. For the same compound, the TGI (HCC-2998 colon) was over 100 µM, the GI50 (OVCAR-3 ovarian) was 2.53 µM and the TGI (OVCAR-3 ovarian) was 7.32 µM. The GI50 (SK-OV-3 ovarian) was 4.66 µM, the TGI (SK-OV-3 ovarian) was 17.4 µM and the GI50 (HL-60(TB) leukemia) was 3.6 µM. The TGI (HL-60(TB) leukemia) was over 100 µM, the GI50 (SR leukemia) was 2.89 µM and the TGI (SR leukemia) was 29.5 µM. The GI50 (NCI-H522 lung) was 3.51 µM, the TGI (NCI-H522 lung) was over 100 µM and the GI50 (SN12C renal) was 5.52 µM. For the same compound, the TGI (SN12C renal) was 71.1 µM, the GI50 (OVCAR-4 ovarian) was 6.52 µM and the TGI (OVCAR-4 ovarian) was 23.8 µM. For the same compound, the GI50 (PC-3 prostate) was 4.85 µM, the TGI (PC-3 prostate) was 48.4 µM and the GI50 (M14 melanoma) was 4.76 µM. For the same compound, the TGI (M14 melanoma) was 50.2 µM, the GI50 (HS 578T breast) was 3.31 µM and the TGI (HS 578T breast) was 27.5 µM. For the same compound, the GI50 (TK-10 renal) was 12 µM, the TGI (TK-10 renal) was 47.3 µM and the GI50 (CAKI-1 renal) was 3.81 µM. It also gave a TGI (CAKI-1 renal) of 38.8 µM, a GI50 (ACHN renal) of 12.2 µM and a TGI (ACHN renal) of 76.6 µM. For the same compound, the GI50 (HOP-62 NSCLC) was 5.68 µM, the TGI (HOP-62 NSCLC) was 20 µM and the GI50 (NCI-H23 lung) was 3.78 µM. For the same compound, the TGI (NCI-H23 lung) was 29.9 µM, the GI50 (U251 CNS) was 5.26 µM and the TGI (U251 CNS) was 23.8 µM. For the same compound, the GI50 (RXF 393 renal) was 2.09 µM, the TGI (RXF 393 renal) was 9.87 µM and the GI50 (OVCAR-8 ovarian) was 8.81 µM. For the same compound, the TGI (OVCAR-8 ovarian) was 78.4 µM, the GI50 (MALME-3M melanoma) was 10.9 µM and the TGI (MALME-3M melanoma) was 47.4 µM. It also gave a GI50 (KM12 colon) of 2.09 µM, a TGI (KM12 colon) of 14 µM and a GI50 (SK-MEL-5 melanoma) of 3.13 µM. It also gave a TGI (SK-MEL-5 melanoma) of 15.1 µM, a GI50 (SF-295 CNS) of 3.64 µM and a TGI (SF-295 CNS) of 18.5 µM. For the same compound, the GI50 (SK-MEL-28 melanoma) was 5.94 µM, the TGI (SK-MEL-28 melanoma) was 32.8 µM and the GI50 (HCT-116 colon) was 4.23 µM. For the same compound, the TGI (HCT-116 colon) was 32 µM, the GI50 (CCRF-CEM leukemia) was 3.24 µM and the TGI (CCRF-CEM leukemia) was over 100 µM. The GI50 (IGROV1 ovarian) was 5.42 µM, the TGI (IGROV1 ovarian) was 29.9 µM and the GI50 (HOP-92 NSCLC) was 1.32 µM. It also gave a TGI (HOP-92 NSCLC) of 9.41 µM, a GI50 (MOLT-4 leukemia) of 4.78 µM and a TGI (MOLT-4 leukemia) of over 100 µM. For the same compound, the GI50 (MDA-MB-231 breast) was 5.5 µM, the TGI (MDA-MB-231 breast) was 51.4 µM and the GI50 (SF-268 CNS) was 6.33 µM. The TGI (SF-268 CNS) was 31.6 µM, the GI50 (T-47D breast) was 4.79 µM and the TGI (T-47D breast) was 36.8 µM. For the same compound, the GI50 (A549 NSCLC) was 4.66 µM, the TGI (A549 NSCLC) was 33.8 µM and the GI50 (COLO 205 colon) was 5.3 µM. It also gave a TGI (COLO 205 colon) of 19.9 µM, a GI50 (MDA-MB-435) of 0.761 µM and a TGI (MDA-MB-435) of 5.85 µM. It also gave a GI50 (SK-MEL-2 melanoma) of 4.99 µM, a TGI (SK-MEL-2 melanoma) of 35.7 µM and a GI50 (HCT-15 colon) of 3.84 µM. The TGI (HCT-15 colon) was over 100 µM, the GI50 (SW-620 colon) was 2.73 µM and the TGI (SW-620 colon) was 16.9 µM. It also gave a GI50 (OVCAR-5 ovarian) of 8.69 µM, a TGI (OVCAR-5 ovarian) of over 100 µM and a GI50 (LOX IMVI melanoma) of 5.51 µM. For the same compound, the TGI (LOX IMVI melanoma) was over 100 µM, the GI50 (UACC-62 melanoma) was 4.15 µM and the TGI (UACC-62 melanoma) was 91.3 µM. For the same compound, the GI50 (SNB-19 CNS) was 10.5 µM, the TGI (SNB-19 CNS) was 49.2 µM and the GI50 (UO-31 renal) was 6.52 µM. For the same compound, the TGI (UO-31 renal) was over 100 µM, the GI50 (HT29 colon) was 3.22 µM and the TGI (HT29 colon) was 18.3 µM. It also gave a GI50 (A498 renal) of 1.69 µM, a TGI (A498 renal) of 9.72 µM and a GI50 (786-0 renal) of 8.96 µM. It also gave a TGI (786-0 renal) of 42.2 µM, a GI50 (UACC-257 melanoma) of 16 µM and a TGI (UACC-257 melanoma) of over 100 µM.
